Data as given in US20020094522A1, “Means and methods for monitoring non-nucleoside reverse transcriptase inhibitor antiretroviral therapy and guiding therapeutic decisions in the treatment of HIV/AIDS” (priority 2000, published 2002).

tested on: RTV-268 (patient sample 97-268; P236L); assay: Phenotypic susceptibility assay, RTV-268; format: cell-based, HIV-1; details: RTV-268 / patient 268
Description: The resistance test vectors containing a functional luciferase gene cassette were constructed and host cells were transfected with the resistance test vector DNA. The resistant test vectors contained patient-derived reverse transcriptase and protease sequences that were either susceptible or resistant to the antiretroviral agents, such as nucleoside reverse transcriptase inhibitors, non-nucleoside reverse transcriptase inhibitors and protease inhibitors. The resistance test vector viral particles produced by transfecting the resistance test vector DNA into host cells, either in the presence or absence of protease inhibitors, were used to infect target host cells grown either in the absence of NRTI or NNRTI or in the presence of increasing concentrations of the drug. The amount of luciferase activity produced in infected target host cells in the presence of drug was compared to the amount of luciferase produced in infected target host cells in the absence of drug. Drug resistance was measured as the amount of drug required to inhibit by 50% the luciferase activity detected in the absence of drug (inhibitory concentration 50%, IC50). The IC50 values were determined by plotting percent drug inhibition vs. log10 drug concentration.
Host cells were seeded in 10-cm-diameter dishes and were transfected several days after plating with resistance test vector plasmid DNA and the envelope expression vector. Transfections were performed using a calcium-phosphate precipitation procedure. The cell culture media containing the DNA precipitate was replaced with fresh medium, from one to 24 hours, after transfection. Cell culture media containing resistance test vector viral particles was harvested one to four days after transfection and was passed through a […] filter before being stored at −80° C. HIV capsid protein (p24) levels in the harvested cell culture media were determined by an EIA method as described by the manufacturer (SIAC; Frederick, Md.). Before infection, target cells (293 and 293/T) were plated in cell culture media. Control infections were performed using cell culture media from mock transfections (no DNA) or transfections containing the resistance test vector plasmid DNA without the envelope expression plasmid. One to three or more days after infection the media was removed and cell lysis buffer (Promega) was added to each well. […] The inhibitory effect of the drug was determined using the following equation: […]
where RLUluc [drug] is the relative light unit of luciferase activity in infected cells in the presence of drug and RLUluc is the Relative Light Unit of luciferase activity in infected cells in the absence of drug. IC50 values were obtained from the sigmoidal curves that were generated from the data by plotting the percent inhibition of luciferase activity vs. the log10 drug concentration.
A resistance test vector was constructed as described in Example 1 from a patient sample designated 97-268. […] Isolation of viral RNA and RT/PCR was used to generate a patient derived segment that comprised viral sequences coding for all of PR and amino acids 1-313 of RT. The patient derived segment was inserted into a indicator gene viral vector to generate a resistance test vector designated RTV-268. RTV-268 was then tested using the phenotypic susceptibility assay to determine accurately and quantitatively the level of susceptibility to a panel of anti-retroviral drugs. […] An IC50 was determined for each drug tested. Susceptibility of the patient virus to each drug was examined and compared to the susceptibility of a reference virus. […] The sample was examined further for genotypic changes associated with the pattern of susceptibility.

| Structure (SMILES) | susceptibility/resistance compared to reference virus |
| --- | --- |
| Cc1cn([C@H]2C=C[C@@H](CO)O2)c(=O)[nH]c1=O [d4T] | slight shifts in susceptibility |
| O=c1[nH]cnc2c1ncn2[C@H]1CC[C@@H](CO)O1 [ddI] | slight shifts in susceptibility |
| Nc1ccn([C@H]2CC[C@@H](CO)O2)c(=O)n1 [ddC] | slight shifts in susceptibility |
| Nc1ccn([C@@H]2CS[C@H](CO)O2)c(=O)n1 [3TC] | significant resistance |
| Cc1cn([C@H]2C[C@H](N=[N+]=[N-])[C@@H](CO)O2)c(=O)[nH]c1=O [AZT] | significant resistance |

tested on: T66I integrase site-directed mutant resistance test vector; assay: Phenotypic susceptibility assay, T66I integrase mutant vector; format: cell-based, HIV; details: T66I integrase mutant
Experimental: Transfections were performed using a calcium-phosphate precipitation procedure. […] Cell lysates were assayed for luciferase activity (FIG. 3).
The drug inhibition curves are shown in (FIG. 3).
A resistance test vector containing the threonine to isoleucine mutation at position 66 of the integrase protein (T66I) was constructed and tested using the phenotypic assay described earlier.

| Structure (SMILES) | reduction in susceptibility compared to wild type control RTV |
| --- | --- |
| O=C(O)C(=O)CC(=O)c1cccn1Cc1ccc(F)cc1 [L-731,988] | 4.7 fold |
